Publication PMC8766756, “Insights on Cancer Cell Inhibition, Subcellular Activities, and Kinase Profile of Phenylacetamides Pending 1H-Imidazol-5-One Variants” (Frontiers in Pharmacology, 2022)

Experiments:
Axl (P30530) = target: T1, Axl (P30530) (Homo sapiens, UniProt P30530); assay: PamChip tyrosine kinase microarray; assay type: biochemical; details: 0.1 µM, HL60 lysate
T1 construct: purchased PamGene (PamChip PTK array, Upstream Kinase Analysis)
T1 sequence (P30530 26-894): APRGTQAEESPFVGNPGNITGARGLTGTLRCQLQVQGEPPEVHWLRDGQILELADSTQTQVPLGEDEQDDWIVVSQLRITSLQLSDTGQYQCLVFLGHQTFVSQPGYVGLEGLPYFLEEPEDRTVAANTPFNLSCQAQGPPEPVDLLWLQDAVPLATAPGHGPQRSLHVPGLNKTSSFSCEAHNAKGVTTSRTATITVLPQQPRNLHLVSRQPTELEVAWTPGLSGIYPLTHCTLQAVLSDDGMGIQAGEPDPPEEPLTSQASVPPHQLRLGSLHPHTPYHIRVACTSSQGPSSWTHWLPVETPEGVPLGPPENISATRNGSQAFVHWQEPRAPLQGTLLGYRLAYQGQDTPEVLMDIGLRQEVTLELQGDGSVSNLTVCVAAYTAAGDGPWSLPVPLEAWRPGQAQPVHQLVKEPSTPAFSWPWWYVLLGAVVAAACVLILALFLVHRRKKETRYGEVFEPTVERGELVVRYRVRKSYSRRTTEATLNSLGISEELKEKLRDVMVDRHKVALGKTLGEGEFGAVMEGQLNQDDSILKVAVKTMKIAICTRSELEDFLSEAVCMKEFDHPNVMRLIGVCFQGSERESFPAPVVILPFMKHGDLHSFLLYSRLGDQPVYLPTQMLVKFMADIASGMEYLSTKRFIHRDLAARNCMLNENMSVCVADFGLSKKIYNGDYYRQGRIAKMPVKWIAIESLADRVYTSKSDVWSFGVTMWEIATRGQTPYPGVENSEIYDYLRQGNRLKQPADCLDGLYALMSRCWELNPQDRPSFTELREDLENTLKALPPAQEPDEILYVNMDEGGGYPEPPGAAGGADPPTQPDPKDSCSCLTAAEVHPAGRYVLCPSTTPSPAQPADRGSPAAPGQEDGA
In short: (§1)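 HL60 (AML) cell lysate was spiked with compound at 0.001, 0.01, 0.1, 1, 10 and 50 µM, or 2% v/v DMSO as control, then profiled in technical replicates on a tyrosine kinase peptide array of 196 phosphosites. Kinase activity was inferred from peptide-set changes using an upstream kinase tool.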

EphA8 (P29322) = target: T2, EphA8 (P29322) (Homo sapiens, UniProt P29322); assay: PamChip tyrosine kinase microarray; assay type: biochemical; details: 0.1 µM, HL60 lysate
T2 construct: purchased PamGene (PamChip PTK array, Upstream Kinase Analysis)
T2 sequence (P29322 28-1005): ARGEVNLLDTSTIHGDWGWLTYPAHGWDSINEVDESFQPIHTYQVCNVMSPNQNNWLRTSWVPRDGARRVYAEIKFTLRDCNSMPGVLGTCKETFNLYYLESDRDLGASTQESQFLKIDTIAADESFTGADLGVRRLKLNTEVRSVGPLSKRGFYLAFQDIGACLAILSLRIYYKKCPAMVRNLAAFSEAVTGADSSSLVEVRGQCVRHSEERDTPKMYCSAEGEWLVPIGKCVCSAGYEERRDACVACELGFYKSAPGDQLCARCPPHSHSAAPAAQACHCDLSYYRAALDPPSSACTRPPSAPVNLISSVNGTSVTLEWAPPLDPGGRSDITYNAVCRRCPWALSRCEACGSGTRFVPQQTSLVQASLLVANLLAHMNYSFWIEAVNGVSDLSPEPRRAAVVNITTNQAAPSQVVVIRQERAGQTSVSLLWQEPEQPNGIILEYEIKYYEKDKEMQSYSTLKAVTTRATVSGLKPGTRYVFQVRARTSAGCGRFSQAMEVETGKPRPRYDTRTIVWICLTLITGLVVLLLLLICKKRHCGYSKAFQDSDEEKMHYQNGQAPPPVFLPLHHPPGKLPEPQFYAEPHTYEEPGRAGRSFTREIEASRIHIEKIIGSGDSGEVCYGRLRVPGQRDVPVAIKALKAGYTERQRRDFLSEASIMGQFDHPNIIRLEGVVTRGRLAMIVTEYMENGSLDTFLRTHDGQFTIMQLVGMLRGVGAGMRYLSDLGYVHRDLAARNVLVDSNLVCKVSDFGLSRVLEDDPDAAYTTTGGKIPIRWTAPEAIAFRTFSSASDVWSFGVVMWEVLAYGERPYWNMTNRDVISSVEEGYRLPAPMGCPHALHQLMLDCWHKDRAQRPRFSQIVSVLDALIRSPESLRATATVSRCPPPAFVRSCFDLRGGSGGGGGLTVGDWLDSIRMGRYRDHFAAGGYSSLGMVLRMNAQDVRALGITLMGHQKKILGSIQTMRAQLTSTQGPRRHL
In short: as §1

Compound: COc1ccc(/C=C2\N=C(C)N(c3ccc(CC(=O)NCc4ccccc4)cc3)C2=O)cc1 [Compound 4c, (Z)-N-Benzyl-2-(4-(4-(4-methoxybenzylidene)-2-methyl-5-oxo-4,5-dihydro-1H-imidazol-1-yl)phenyl)acetamide]
- Mean Final score (Kinase score) (Axl (P30530)): 2.569
- Mean Kinase Statistic (Axl (P30530)): -1.219
- Mean Significance Score (Axl (P30530)): 2.048
- Mean Specificity Score (Axl (P30530)): 0.5684
- Mean Final score (Kinase score) (EphA8 (P29322)): 2.201
- Mean Kinase Statistic (EphA8 (P29322)): -0.925
- Mean Significance Score (EphA8 (P29322)): 1.989
- Mean Specificity Score (EphA8 (P29322)): 0.1251
